Test results from patent publication EP3262942A1, “SELENODIARYLS FOR USE AS MICROBICIDE OR AS MEDICINE” (Evonik Degussa GmbH, priority 2016, dated 2018).

Experiments:
[1] = test system: alle getesteten Pathogene; assay type: cell-based; conditions: 5-50 µg/mL
M. grisea CM = assay: microbe, parasite or virus in culture; assay type: cell-based, Magnaporthe grisea; conditions: Pyricularia grisea, 24 h, read-out: Aktivität gegenüber M. grisea CM
Penicillium notatum = assay: Growth test in microtiter plates, HA medium, 24 h, visual evaluation; assay type: cell-based; set-up: key: +: kein Wachstum im Vergleich zur Wachstumskontrolle; -: Wachstum wie Wachstumskontrolle
Candida albicans = assay: as above; assay type: cell-based; set-up: key: +: kein Wachstum im Vergleich zur Wachstumskontrolle; -: Wachstum wie Wachstumskontrolle
M. grisea H2O = assay: microbe, parasite or virus in culture; assay type: cell-based, Magnaporthe grisea; conditions: Pyricularia grisea, H2O, 24 h, read-out: Aktivität gegenüber M. grisea H2O
Botrytis cinerea = assay: microbe, parasite or virus in culture; assay type: cell-based; conditions: for inhibition of growth at 5 µg/mL / inhibition of growth at 10 µg/mL / inhibition of growth at 25 µg/mL / inhibition of growth at 50 µg/mL: Botrytis cinerea, 24 h, read-out: Aktivität gegenüber B. cinerea
Setaria italica = assay: Crop plant growth test, seeds on filter discs, 4 days, visual evaluation; assay type: in vivo
In short: (§1)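 Compounds dried from DMSO onto filter discs; about 12 seeds per well with 200 µl sterile tap water, incubated 4 days in a humid chamber under 16 h light/8 h dark. Visual scoring: + means at least 75 % growth inhibition versus control, − means less than 75 %.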

Lepidium sativum = assay: as above; assay type: in vivo
In short: as §1

Paecilomyces variotii = assay: Growth test in microtiter plates, HA medium, 24 h, visual evaluation; assay type: cell-based; set-up: key: +: kein Wachstum im Vergleich zur Wachstumskontrolle; -: Wachstum wie Wachstumskontrolle
P. infestans = assay: microbe, parasite or virus in culture; assay type: cell-based, Phytophthora infestans; conditions: Phytophthora infestans, 24 h, read-out: Aktivität gegenüber P. infestans
Mucor miehei = assay: Growth test in microtiter plates, HA medium, 24 h, visual evaluation; assay type: cell-based; set-up: key to Aktivität gegenüber M. miehei: +: kein Wachstum im Vergleich zur Wachstumskontrolle; -: Wachstum wie Wachstumskontrolle

| Compound | Aktivität im Wachstums- und Keimungshemmungstest gegen die getesteten Pathogene [1] | inhibition of growth at 5 µg/mL (M. grisea CM) [%] | inhibition of growth at 10 µg/mL (M. grisea CM) [%] | inhibition of growth at 25 µg/mL (M. grisea CM) [%] | inhibition of growth at 50 µg/mL (M. grisea CM) [%] | Aktivität gegenüber P. notatum (Penicillium notatum; 10µg/mL) | Aktivität gegenüber P. notatum (Penicillium notatum; 50µg/mL) | Aktivität gegenüber C. albicans (Candida albicans; 10µg/mL) | Aktivität gegenüber C. albicans (Candida albicans; 50µg/mL) | inhibition of growth at 5 µg/mL (M. grisea H2O) [%] | inhibition of growth at 10 µg/mL (M. grisea H2O) [%] | inhibition of growth at 25 µg/mL (M. grisea H2O) [%] | inhibition of growth at 50 µg/mL (M. grisea H2O) [%] | inhibition of growth at 5 µg/mL (Botrytis cinerea) [%] | inhibition of growth at 10 µg/mL (Botrytis cinerea) [%] | inhibition of growth at 25 µg/mL (Botrytis cinerea) [%] | inhibition of growth at 50 µg/mL (Botrytis cinerea) [%] | Aktivität gegenüber Nutzpflanzen: S. italica (Setaria italica; 10µg/R) | Aktivität gegenüber Nutzpflanzen: S. italica (Setaria italica; 20µg/R) | Aktivität gegenüber Nutzpflanzen: S. italica (Setaria italica; 50µg/R) | also measured |
| --- | --- | --- | --- | --- | --- | --- | --- | --- | --- | --- | --- | --- | --- | --- | --- | --- | --- | --- | --- | --- | --- |
| Cc1cc([Se]c2cc(C)c(O)c(C)c2)cc(C)c1O [Verbindung 19, Bis(3,5-dimethyl-4-hydroxyphenyl)selen] | deutliche Aktivität gegenüber allen getesteten Pathogenen, mit Ausnahme von C. albicans | > 75 | > 75 | > 75 | > 75 | - | + | - | - | > 75 | > 75 | > 75 | > 75 | 25 to 50 | > 75 | > 75 | 0 to 25 | + (mind. 75 % Wachstumshemmung im Vergleich zur Kontrolle) | + (mind. 75 % Wachstumshemmung im Vergleich zur Kontrolle) | + (mind. 75 % Wachstumshemmung im Vergleich zur Kontrolle) | mikrobizide Wirksamkeit gegenüber B. cinerea (Botrytis cinerea): mikrobizide Wirksamkeit; Effekt auf S. italica (Setaria italica): wachstumshemmenden Effekt; Aktivität gegenüber Nutzpflanzen: L. sativum (Lepidium sativum; 10µg/R): - (weniger als 75 % Wachstumshemmung im Vergleich zur Kontrolle); Aktivität gegenüber Nutzpflanzen: L. sativum (Lepidium sativum; 20µg/R): - (weniger als 75 % Wachstumshemmung im Vergleich zur Kontrolle); Aktivität gegenüber Nutzpflanzen: L. sativum (Lepidium sativum; 50µg/R): - (weniger als 75 % Wachstumshemmung im Vergleich zur Kontrolle); Aktivität gegenüber P. variotii (Paecilomyces variotii; 10µg/mL): -; Aktivität gegenüber P. variotii (Paecilomyces variotii; 50µg/mL): -; inhibition of growth at 5 µg/mL (P. infestans): 0 to 25%; inhibition of growth at 10 µg/mL (P. infestans): 50 to 75%; inhibition of growth at 25 µg/mL (P. infestans): 50 to 75%; inhibition of growth at 50 µg/mL (P. infestans): 0 to 25%; Aktivität gegenüber M. miehei (Mucor miehei; 10µg/mL): +; Aktivität gegenüber M. miehei (Mucor miehei; 50µg/mL): + |
| COc1cc(C)cc([Se]c2cc(C)cc(OC)c2O)c1O [Verbindung 20, Bis(2-hydroxy-3-methoxy-5-methylphenyl)selen] | fungizider Effekt | 25 to 50 | > 75 | > 75 | > 75 | - | - | - | - | 25 to 50 | > 75 | > 75 | > 75 | 0 to 25 | 0 to 25 | 0 to 25 | 0 to 25 | - (weniger als 75 % Wachstumshemmung im Vergleich zur Kontrolle) | - (weniger als 75 % Wachstumshemmung im Vergleich zur Kontrolle) | - (weniger als 75 % Wachstumshemmung im Vergleich zur Kontrolle) | Aktivität gegenüber Nutzpflanzen: L. sativum (Lepidium sativum; 10µg/R): - (weniger als 75 % Wachstumshemmung im Vergleich zur Kontrolle); Aktivität gegenüber Nutzpflanzen: L. sativum (Lepidium sativum; 20µg/R): - (weniger als 75 % Wachstumshemmung im Vergleich zur Kontrolle); Aktivität gegenüber Nutzpflanzen: L. sativum (Lepidium sativum; 50µg/R): - (weniger als 75 % Wachstumshemmung im Vergleich zur Kontrolle); Aktivität gegenüber P. variotii (Paecilomyces variotii; 10µg/mL): -; Aktivität gegenüber P. variotii (Paecilomyces variotii; 50µg/mL): -; inhibition of growth at 5 µg/mL (P. infestans): 0 to 25%; inhibition of growth at 10 µg/mL (P. infestans): 0 to 25%; inhibition of growth at 25 µg/mL (P. infestans): > 75%; inhibition of growth at 50 µg/mL (P. infestans): > 75%; Aktivität gegenüber M. miehei (Mucor miehei; 10µg/mL): -; Aktivität gegenüber M. miehei (Mucor miehei; 50µg/mL): - |
| Oc1c(Cl)cc(F)cc1[Se]c1cc(F)cc(Cl)c1O [Verbindung 24, Bis(3-chlor-5-fluor-2-hydroxyphenyl)selen] | durchgehende Aktivität gegen alle Pathogene | > 75 | > 75 | > 75 | > 75 | + | + | + | + | > 75 | > 75 | > 75 | > 75 | > 75 | > 75 | > 75 | > 75 | - (weniger als 75 % Wachstumshemmung im Vergleich zur Kontrolle) | + (mind. 75 % Wachstumshemmung im Vergleich zur Kontrolle) | - (weniger als 75 % Wachstumshemmung im Vergleich zur Kontrolle) | mikrobizide Wirksamkeit gegenüber B. cinerea (Botrytis cinerea): mikrobizide Wirksamkeit; Effekt auf S. italica (Setaria italica): deutlichen negativen Effekt; Aktivität gegenüber Nutzpflanzen: L. sativum (Lepidium sativum; 10µg/R): - (weniger als 75 % Wachstumshemmung im Vergleich zur Kontrolle); Aktivität gegenüber Nutzpflanzen: L. sativum (Lepidium sativum; 20µg/R): + (mind. 75 % Wachstumshemmung im Vergleich zur Kontrolle); Aktivität gegenüber Nutzpflanzen: L. sativum (Lepidium sativum; 50µg/R): - (weniger als 75 % Wachstumshemmung im Vergleich zur Kontrolle); Effekt auf L. sativum (Lepidium sativum; […]): deutlichen negativen Effekt; Aktivität gegenüber P. variotii (Paecilomyces variotii; 10µg/mL): +; Aktivität gegenüber P. variotii (Paecilomyces variotii; 50µg/mL): -; inhibition of growth at 5 µg/mL (P. infestans): > 75%; inhibition of growth at 10 µg/mL (P. infestans): > 75%; inhibition of growth at 25 µg/mL (P. infestans): > 75%; inhibition of growth at 50 µg/mL (P. infestans): > 75%; Aktivität gegenüber M. miehei (Mucor miehei; 10µg/mL): +; Aktivität gegenüber M. miehei (Mucor miehei; 50µg/mL): + |
